Tested on: alanine mutant versions of CD25
Assay: Alanine mutagenesis functional epitope mapping
Conditions: binding responses to alanine mutant versions of CD25
Protocol: Alanine mutagenesis was selected as an orthogonal method for binning antibodies because it operates on the functional epitope, rather than the structural epitope defined by competition assays. Various pairs of surface-accessible residues were selected for mutagenesis.
Each of 117 scFv's from the screening campaign were tested against four alanine mutations pairs (FIG. 31).

## basiliximab
  Ala-mutant epitope mapping of control antibody: Ala mutant binding responses corroborate crystal structure of the basiliximab epitope
